The values below come from patent publication US20260209777A1, “TARGETING GLYCOSYLPHOSPHATIDYLINOSITOL (GPI) PATHWAY PROTEINS TO TREAT OVARIAN CANCER” (UNIVERSITY OF MASSACHUSETTS, priority 2023, published 2026).

The subject of assay [1] is normal B cells. As to the kind of experiment: In vitro phagocytosis assay of normal B cells by PBMC-derived M2 macrophages. It is filed as cell-based, human. To be noted: for phagocytosis of B cells: bestatin 20 μM, tosedostat 10 μM vs DMSO, anti-CD24 antibody (clone SN3) vs IgG (FIG. 9B); for selectivity, CD24+ ovarian cancer cells relative to normal CD24+ B cells: comparison of FIG. 9B and 9C. The text has this: Macrophage Generation and Stimulation: Primary human donor-derived macrophages were generated as described previously (Martinez, Curr Protocol Immunol 2012, Chapter 14:14.28.1-14.28.23). In brief, Leukopaks from anonymous donors were obtained from the Rhode Island Blood (Providence, RI) and peripheral blood […] (PBMCs) were isolated by density gradients centrifugation using Ficoll Paque Plus (Sigma-Aldrich, Cat #17-1440-02) followed by RBC lysis using RBC lysis buffer (eBioscience, Cat #00-4333-57). For monocyte isolation, PBMCs were incubated in Monocyte Attachment Medium (Sigma-Aldrich, Cat #C-28051) for 1 hour at 37° C. and 5% CO2 and then washed three times in Iscove's Modified Dulbecco's Medium (IMDM) (Gibco, Cat #12440053) to remove non-adherent cells. The remaining monocytes were detached and seeded in 96-well plates and cultured at 37° C. and 5% CO2 in IMDM supplemented with 10% FBS (Atlanta Biologicals, Cat #S11550) and 20 ng/ml recombinant human M-CSF (Peprotech, Cat #AF-300-25). After 4 days monocytes were then treated with 20 ng/ml recombinant human IL-4 (Peprotech, Cat #200-04) and 10 ng/mL recombinant human IL-10 (PeproTech, Cat #200-10) for another 3-4 days to obtain M2 polarized macrophages. Macrophage differentiation was confirmed morphologically using microscopy. M2-macrophage polarization was confirmed by immunophenotyping of the M2 marker CD206 using PE-conjugated anti-human anti-CD206 antibody (BioLegend, Cat #321106, clone 15-2, 1:100 dilution). Primary B-cell Isolation and Culture: Pan B cells were isolated by negative selection from PBMCs isolated from Leukopaks (as described above) using a MojoSort Human Pan B Cell Isolation Kit (BioLegend, Cat #480081) according to the manufacturer's instructions. The purity of B cells was confirmed to be >95% by flow cytometry using a FITC anti-human CD19 antibody (BioLegend, Cat #302205, clone HIB19). B cells were cultured in RPMI 1640 medium supplemented with 5% human serum (Sigma-Aldrich, Cat #H6914), MEM non-essential amino acids solution (Gibco, Cat #1140050), and recombinant human IL-2 (50 ng/ml) (PeproTech, Cat #200-02) and IL-4 (10 ng/ml) (PeproTech, Cat #200-04). In vitro Phagocytosis Assays: To facilitate the quantification of phagocytic events, we adapted a microscopy-based fluorescence phagocytosis […] al., J Immunol Methods 2009, 342(1-2):71-7; Lindner et al., Biotechniques 2020, 68(5):245-250) for use with a Celigo imaging cytometer. […] Phagocytic events were quantified by counting the number of red fluorescent (pHrodo+) cells per well using a Celigo Imaging Cytometer (Nexcelom). […]

Assay [2] relates to OVCAR8 cells. As to the kind of experiment: In vitro phagocytosis assay of OVCAR8 cells by PBMC-derived M2 macrophages. The class given is cell-based, human. To be noted: bestatin 20 μM; for macrophage-mediated phagocytosis: OVCAR8, tosedostat 20 μM, ARM1 2 μM, vs DMSO; for phagocytosis of OVCAR8 cells: tosedostat 10 μM vs DMSO, anti-CD24 antibody (clone SN3) vs IgG (FIG. 9C). The text has this:
Macrophage Generation and Stimulation: Primary human donor-derived macrophages were generated as described previously (Martinez, Curr Protocol Immunol 2012, Chapter 14:14.28.1-14.28.23). In brief, Leukopaks from anonymous donors were obtained from the Rhode Island Blood (Providence, RI) and peripheral blood […] (PBMCs) were isolated by density gradients centrifugation using Ficoll Paque Plus (Sigma-Aldrich, Cat #17-1440-02) followed by RBC lysis using RBC lysis buffer (eBioscience, Cat #00-4333-57). For monocyte isolation, PBMCs were incubated in Monocyte Attachment Medium (Sigma-Aldrich, Cat #C-28051) for 1 hour at 37° C. and 5% CO2 and then washed three times in Iscove's Modified Dulbecco's Medium (IMDM) (Gibco, Cat #12440053) to remove non-adherent cells. The remaining monocytes were detached and seeded in 96-well plates and cultured at 37° C. and 5% CO2 in IMDM supplemented with 10% FBS (Atlanta Biologicals, Cat #S11550) and 20 ng/ml recombinant human M-CSF (Peprotech, Cat #AF-300-25). After 4 days monocytes were then treated with 20 ng/ml recombinant human IL-4 (Peprotech, Cat #200-04) and 10 ng/mL recombinant human IL-10 (PeproTech, Cat #200-10) for another 3-4 days to obtain M2 polarized macrophages. Macrophage differentiation was confirmed morphologically using microscopy. M2-macrophage polarization was confirmed by immunophenotyping of the M2 marker CD206 using PE-conjugated anti-human anti-CD206 antibody (BioLegend, Cat #321106, clone 15-2, 1:100 dilution). In vitro Phagocytosis Assays: To facilitate the quantification of phagocytic events, we adapted a microscopy-based fluorescence phagocytosis […] al., J Immunol Methods 2009, 342(1-2):71-7; Lindner et al., Biotechniques 2020, 68(5):245-250) for use with a Celigo imaging cytometer. […] Cells were incubated with pHrodo Red, SE (Invitrogen, Cat #P36600) on ice for 30 min and then co-cultured with PBMC-derived M2 macrophages (prepared as described above) at a ratio of 1:2 (OVCAR8/B cells: macrophages) for 2 hours in a humidified 5% CO2 incubator at 37° C. Phagocytic events were quantified by counting the number of red fluorescent (pHrodo+) cells per well using a Celigo Imaging Cytometer (Nexcelom). EmGFP was used for the visualization of cancer cells in imaging Phagocytic events were also quantified using a previously-described flow cytometry-based assay (Barkal et al., Nature 2019, 572(7769):392-396; […] et al., Biomedicines 2022, 10(5):1175). In brief, M2 macrophages co-cultured with OVCAR8/EmGFP-luc cells were detached using TrypLE Express (GibcoTM, cat #12604013), stained with APC anti-human CD11b clone ICRF44 (BioLegend, Cat #982604) and analyzed by flow cytometry (BioRad ZE5). Double-positive EmGFP+CD11b+ cells were considered phagocytic events.

For `CC(C)C[C@H](NC(=O)[C@@H](O)[C@H](N)Cc1ccccc1)C(=O)O` [bestatin], in assay [1], the “phagocytosis of B cells” value was “did not undergo phagocytosis” and the “selectivity, CD24+ ovarian cancer cells relative to normal CD24+ B cells” value is given as “selectivity toward CD24+ ovarian cancer cells relative to normal CD24+ B cells”. Also, in assay [2], the macrophage-mediated phagocytosis entry was “substantially increased” and the “phagocytosis of OVCAR8 cells” value was “susceptible”.
In the same order, the values of `CC(C)C[C@@H](C(=O)N[C@H](C(=O)OC1CCCC1)c1ccccc1)[C@H](O)C(=O)NO` [tosedostat] are “did not undergo phagocytosis”, “selectivity toward CD24+ ovarian cancer cells relative to normal CD24+ B cells”, “increased” and “susceptible”.
